Strand notation (5' to 3'): a small letter for the sugar, then the base; units joined by * are phosphorothioate-linked, units joined directly phosphodiester-linked; [ ] holds rarer units or linkages, { } end groups; capitals alone tell only the bases. e = 2'-O-(2-methoxyethyl) (MOE); [5mC] = 5-methylcytosine; d = 2'-deoxy (DNA)
Experiments:
human PKK mRNA [1] = assay: Dose-dependent antisense inhibition of human PKK in HepaRG cells, 0.19-5.00 uM (Example 5); type: cell-based; conditions: HepaRG cells; for percent inhibition of PKK mRNA, 0.19 μM: 0.19 μM antisense oligonucleotide; for percent inhibition of PKK mRNA, 0.56 μM: 0.56 μM antisense oligonucleotide; for percent inhibition of PKK mRNA, 1.67 μM: 1.67 μM antisense oligonucleotide; for percent inhibition of PKK mRNA, 5.00 μM: 5.00 μM antisense oligonucleotide
Procedure: Cells were plated at a density of 20,000 cells per well and transfected using electroporation with 0.19 μM, 0.56 μM, 1.67 μM, and 5.00 μM concentrations of antisense oligonucleotide. After a treatment period of approximately 16 hours, RNA was isolated from the cells and PKK mRNA levels were measured by quantitative real-time PCR. Human PKK primer probe set RTS3454 was used to measure mRNA levels. PKK mRNA levels were adjusted according to total RNA content, as measured by RIBOGREEN®. The antisense oligonucleotides were tested in a series of experiments that had similar culture conditions.
The half maximal inhibitory concentration (IC50) of each oligonucleotide is also presented.

human PKK mRNA [2] = assay: Antisense inhibition of human PKK mRNA in HepaRG cells, 5,000 nM (Example 2); type: cell-based
Summary of the method: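 qRT-PCR (RTS3454) read-out, RIBOGREEN-normalized; % inhibition vs untreated cells. HepaRG, 20,000 cells/well, electroporation, 5,000 nM ASO, ~24 h.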

[3] = electroporation, approximately 16 hours, Table 38
[4] = electroporation, approximately 16 hours, Table 35
[5] = electroporation, approximately 16 hours, Table 39
[6] = 4 point dose response, Table 39
[7] = human PKK mRNA, HepaRG cells, 5-10-5 motif oligonucleotides targeting SEQ ID NO: 1 and 10
[8] = electroporation, approximately 16 hours, Table 37
[9] = 4 point dose response, Table 37

Question: Which results are given for “546358 (antisense e[5mC]*eT*eG*eA*eG*d[5mC]*dT*dT*dT*dT*d[5mC]*d[5mC]*dA*dT*d[5mC]*eA*e[5mC]*eT*eG*e[5mC]) [compound 546358]”?
Answer: percent inhibition of PKK at 0.19 μM (human PKK mRNA [1]; [3]): 0%; percent inhibition of PKK at 0.56 μM (human PKK mRNA [1]; [3]): 19%; percent inhibition of PKK at 1.67 μM (human PKK mRNA [1]; [3]): 71%; percent inhibition of PKK at 5.00 μM (human PKK mRNA [1]; [3]): 80%; IC50 (human PKK mRNA [1]; 4 point dose response, Table 38): 1.3 µM; % inhibition (human PKK mRNA [2]; HepaRG cells, electroporation, 5,000 nM antisense oligonucleotide, approx. 24 hours, primer probe set RTS3454, relative to untreated control cells, Table 11): 83%

Question: With “547276 (antisense e[5mC]*eA*eA*eT*eT*dG*d[5mC]*dT*dT*d[5mC]*dT*dT*dG*dG*dA*eG*eG*eT*eG*eA) [compound 547276]” as the substance, how does the “percent inhibition of PKK at 0.19 μM” value (human PKK mRNA [1]; [4]) read?
Answer: 35%

Question: What about the “percent inhibition of PKK at 0.56 μM” value (human PKK mRNA [1]; [4]) of the same substance?
Answer: 44%

Question: And the “percent inhibition of PKK at 1.67 μM” value (human PKK mRNA [1]; [4])?
Answer: 71%

Question: And the “percent inhibition of PKK at 5.00 μM” value (human PKK mRNA [1]; [4])?
Answer: 77%

Question: And the IC50 (human PKK mRNA [1]; 4 point dose response, Table 35)?
Answer: 0.6 µM

Question: And the “percent inhibition of PKK mRNA, 0.19 μM” value (human PKK mRNA [1])?
Answer: 6%

Question: And the “percent inhibition of PKK mRNA, 0.56 μM” value (human PKK mRNA [1])?
Answer: 3%

Question: What about the “percent inhibition of PKK mRNA, 1.67 μM” value (human PKK mRNA [1]) of the same substance?
Answer: 53%

Question: And the “percent inhibition of PKK mRNA, 5.00 μM” value (human PKK mRNA [1])?
Answer: 68%

Question: What about the IC50 (human PKK mRNA [1]; 0.19-5.00 μM) of the same substance?
Answer: 2.2 µM

Question: And the “% inhibition” value (human PKK mRNA [2]; HepaRG cells, electroporation with 5,000 nM antisense oligonucleotide, approximately 24 hours, PKK mRNA by RT-PCR (RTS3454), relative to untreated control cells, Table 5 experiment)?
Answer: 93%

Question: Which “percent inhibition of PKK at 0.19 μM” value (human PKK mRNA [1]; [5]) does the source give for “547632 (antisense eT*e[5mC]*eA*e[5mC]*eT*dG*dT*d[5mC]*d[5mC]*dT*dA*dT*dA*dT*d[5mC]*eA*e[5mC]*eT*e[5mC]*eT) [compound 547632]” here?
Answer: 44%

Question: And the “percent inhibition of PKK at 0.56 μM” value (human PKK mRNA [1]; [5])?
Answer: 47%

Question: What about the “percent inhibition of PKK at 1.67 μM” value (human PKK mRNA [1]; [5]) of the same substance?
Answer: 81%

Question: And the “percent inhibition of PKK at 5.00 μM” value (human PKK mRNA [1]; [5])?
Answer: 97%

Question: What about the IC50 (human PKK mRNA [1]; [6]) of the same substance?
Answer: 0.6 µM

Question: And the “percent inhibition of PKK mRNA, 0.19 μM” value (human PKK mRNA [1])?
Answer: 0%

Question: What about the “percent inhibition of PKK mRNA, 0.56 μM” value (human PKK mRNA [1]) of the same substance?
Answer: 0%

Question: What about the “percent inhibition of PKK mRNA, 1.67 μM” value (human PKK mRNA [1]) of the same substance?
Answer: 63%

Question: What about the “percent inhibition of PKK mRNA, 5.00 μM” value (human PKK mRNA [1]) of the same substance?
Answer: 91%

Question: What about the IC50 (human PKK mRNA [1]; 0.19-5.00 μM) of the same substance?
Answer: 1.6 µM

Question: And the “% inhibition” value (human PKK mRNA [2]; [7])?
Answer: 87%

Question: Which “percent inhibition of PKK at 0.19 μM” value (human PKK mRNA [1]; [8]) does the source give for “547637 (eA*eG*eT*eA*eT*d[5mC]*dA*d[5mC]*dT*dG*dT*dA*d[5mC]*dT*dA*eG*eT*eT*eT*eT; antisense) [compound 547637]” here?
Answer: 10%

Question: And the “percent inhibition of PKK at 0.56 μM” value (human PKK mRNA [1]; [8])?
Answer: 21%

Question: What about the “percent inhibition of PKK at 1.67 μM” value (human PKK mRNA [1]; [8]) of the same substance?
Answer: 36%

Question: What about the “percent inhibition of PKK at 5.00 μM” value (human PKK mRNA [1]; [8]) of the same substance?
Answer: 82%

Question: And the IC50 (human PKK mRNA [1]; [9])?
Answer: 1.8 µM

Question: What about the “% inhibition” value (human PKK mRNA [2]; [7]) of the same substance?
Answer: 88%

Question: Which “percent inhibition of PKK at 0.19 μM” value (human PKK mRNA [1]; [8]) does the source give for “547575 (eG*eG*eG*eA*eA*dA*d[5mC]*dT*d[5mC]*dT*dT*dT*d[5mC]*d[5mC]*dT*e[5mC]*eG*e[5mC]*e[5mC]*e[5mC]; antisense) [compound 547575]” here?
Answer: 0%

Question: And the “percent inhibition of PKK at 0.56 μM” value (human PKK mRNA [1]; [8])?
Answer: 34%

Question: What about the “percent inhibition of PKK at 1.67 μM” value (human PKK mRNA [1]; [8]) of the same substance?
Answer: 82%

Question: What about the “percent inhibition of PKK at 5.00 μM” value (human PKK mRNA [1]; [8]) of the same substance?
Answer: 93%

Question: What about the IC50 (human PKK mRNA [1]; [9]) of the same substance?
Answer: 1.1 µM

Question: What about the “% inhibition” value (human PKK mRNA [2]; Table 13, human PKK mRNA in HepaRG cells, 5-10-5 gapmers) of the same substance?
Answer: 89%

Question: How did the “percent inhibition of PKK at 0.19 μM” value (human PKK mRNA [1]; [4]) turn out when “546216 (antisense e[5mC]*eT*eG*eG*eA*dG*dT*dG*dA*dG*dA*dA*d[5mC]*d[5mC]*d[5mC]*eT*eG*eG*e[5mC]*eA) [compound 546216]” was run?
Answer: 62%

Question: What about the “percent inhibition of PKK at 0.56 μM” value (human PKK mRNA [1]; [4]) of the same substance?
Answer: 69%

Question: And the “percent inhibition of PKK at 1.67 μM” value (human PKK mRNA [1]; [4])?
Answer: 88%

Question: And the “percent inhibition of PKK at 5.00 μM” value (human PKK mRNA [1]; [4])?
Answer: 88%

Question: What about the “percent inhibition of PKK at 5.00 μM” value (human PKK mRNA [1]; electroporation, approximately 16 hours, Table 41) of the same substance?
Answer: 98%

Question: And the “percent inhibition of PKK at 0.19 0μM” value (human PKK mRNA [1]; 0.19 0μM, electroporation, approximately 16 hours, Table 41)?
Answer: 23%

Question: What about the “percent inhibition of PKK at 0.56 0μM” value (human PKK mRNA [1]; 0.56 0μM, electroporation, approximately 16 hours, Table 41) of the same substance?
Answer: 78%

Question: What about the “percent inhibition of PKK at 1.67 1μM” value (human PKK mRNA [1]; 1.67 1μM, electroporation, approximately 16 hours, Table 41) of the same substance?
Answer: 95%

Question: What about the IC50 (human PKK mRNA [1]; 4 point dose response, Table 41) of the same substance?
Answer: < 0.2 µM

Question: And the “% inhibition” value (human PKK mRNA [2]; Table 7, HepaRG cells, electroporation with 5,000 nM antisense oligonucleotide, approx. 24 hours, PKK mRNA by RT-PCR (RTS3454), relative to untreated control cells)?
Answer: 93%

Question: “547616 (antisense eT*eG*eT*e[5mC]*e[5mC]*dT*dA*dT*dA*dT*d[5mC]*dA*d[5mC]*dT*dG*eT*eA*e[5mC]*e[5mC]*eT) [compound 547616]” was tested. Which “percent inhibition of PKK at 0.19 μM” value (human PKK mRNA [1]; [5]) did it give?
Answer: 26%

Question: What about the “percent inhibition of PKK at 0.56 μM” value (human PKK mRNA [1]; [5]) of the same substance?
Answer: 50%

Question: And the “percent inhibition of PKK at 1.67 μM” value (human PKK mRNA [1]; [5])?
Answer: 72%

Question: What about the “percent inhibition of PKK at 5.00 μM” value (human PKK mRNA [1]; [5]) of the same substance?
Answer: 89%

Question: And the IC50 (human PKK mRNA [1]; [6])?
Answer: 0.6 µM

Question: And the “% inhibition” value (human PKK mRNA [2]; human PKK mRNA in HepaRG cells, 5-10-5 gapmers, Table 14)?
Answer: 86%
